From patent publication US7256286B2, “Bryostatin analogues, synthetic methods and uses” (The Board of Trustees of the Leland Stanford Junior …, priority 1999, dated 2007)

Key:
[1] = system: SK-MEL-28; experiment: NCI human cancer cell line growth inhibition: SK-MEL-28; type: cell-based; conditions: SK-MEL-28, Melanoma
[2] = system: HS 578T; experiment: NCI human cancer cell line growth inhibition: HS 578T; type: cell-based; conditions: Breast
[3] = system: SK-MEL-2; experiment: NCI human cancer cell line growth inhibition: SK-MEL-2; type: cell-based; conditions: SK-MEL-2, Melanoma
[4] = system: MI4; experiment: NCI human cancer cell line growth inhibition: MI4; type: cell-based; conditions: MI4, Melanoma
[5] = system: HOP-92; experiment: NCI human cancer cell line growth inhibition: HOP-92; type: cell-based; conditions: HOP-92, NSC Lung
[6] = system: P388 cell line; experiment: P388 murine lymphocytic leukemia cell assay; type: cell-based
Experimental: Cells from a P388 cell line (CellGate, Inc., Sunnyvale, Calif.) are grown in RPMI 1640 cell medium containing fetal calf serum (10%), L-glutamine, penicillin, streptomycin and are split twice weekly. All compounds are first diluted with DMSO. Later serial dilutions are done with a phosphate buffer solution (HYQ DPBS modified phosphate buffered saline). All dilutions are done in glass vials and the final DMSO concentration is always below 0.5% by volume. Final two-fold dilutions are done in a 96 well plate using cell media so that each well contains 50 μL. All compounds are assayed in quadruplicate over 12 concentrations. Cell concentration is measured using a hemacytometer and the final cell concentration is adjusted to 1×10^4 cells/mL with cell medium. The resulting solution of cells (50 μL) is then added to each well and the plates are incubated for 5 days in a 37° C., 5% CO2, humidified incubator (Sanyo CO2 incubator). MTT solution (3-[4,5-dimethylthiazol-2-yl]-2,5-diphenyltetrazolium bromide, 10 μL) is then added to each well and the plates are re-incubated under identical conditions for 2 h. To each well is then added acidified isopropanol (150 μL of i-PrOH solution containing 0.05 N HCl) and mixed thoroughly. The plates are then scanned at 595 nm and the absorbances are read (Wallac Victor 1420 Multilabel Counter). The resulting data is then analyzed to determine an ED50 value using the Prism software package (GraphPad).

[7] = system: MDA-MB-231/ATCC; experiment: NCI human cancer cell line growth inhibition: MDA-MB-231/ATCC; type: cell-based; conditions: Breast
[8] = system: MDA-MB-435; experiment: NCI human cancer cell line growth inhibition: MDA-MB-435; type: cell-based
[9] = system: SK-OV-3; experiment: NCI human cancer cell line growth inhibition: SK-OV-3; type: cell-based; conditions: SK-OV-3, Ovarian
[10] = system: OVCAR-8; experiment: NCI human cancer cell line growth inhibition: OVCAR-8; type: cell-based; conditions: OVCAR-8, Ovarian
[11] = system: KM12; experiment: NCI human cancer cell line growth inhibition: KM12; type: cell-based; conditions: KM12, Colon
[12] = system: A498; experiment: NCI human cancer cell line growth inhibition: A498; type: cell-based; conditions: A498, Renal
[13] = system: T-47D; experiment: NCI human cancer cell line growth inhibition: T-47D; type: cell-based; conditions: Breast
[14] = target: T1, PKCδ-C1B (Mus musculus, UniProt P28867); experiment: PKCδ-C1B assay; type: binding
T1 construct: made in house
Experimental: Phosphatidyl serine vesicles are prepared by the addition of phosphatidyl serine (10 mg/mL in chloroform, 0.4 mL) to a glass test tube followed by removal of the chloroform under a stream of nitrogen (5 min). […] The resulting solution is stored over ice. […] Stock solutions of compounds are diluted with absolute ethanol in glass in serial fashion. […] The tubes are incubated at 37° C. for 90 min. and then put on ice for 5 min. Each tube is then filtered separately through a pre-soaked filter disc. […] The filter is subsequently rinsed with cold 20 mM TRIS buffer (5 mL) dropwise. […] The filters are immediately counted in a scintillation counter (Beckman LS 6000SC). Counts per minute are averaged among three trials at each concentration.

[15] = system: RPMI-8226; experiment: NCI human cancer cell line growth inhibition: RPMI-8226; type: cell-based; conditions: RPMI-8226, Leukemia
[16] = system: SNB-19; experiment: NCI human cancer cell line growth inhibition: SNB-19; type: cell-based; conditions: SNB-19, CNS
[17] = system: HCT-15; experiment: NCI human cancer cell line growth inhibition: HCT-15; type: cell-based; conditions: Homo sapiens; HCT-15, Colon
[18] = system: MOLT-4; experiment: NCI human cancer cell line growth inhibition: MOLT-4; type: cell-based; conditions: MOLT-4, Leukemia
[19] = system: HCC-2998; experiment: NCI human cancer cell line growth inhibition: HCC-2998; type: cell-based; conditions: HCC-2998, Colon
[20] = system: NCI-H460; type: cell-based, human; conditions: NCI-H460, NSC Lung
[21] = 702.1 vs corresponding C26 methyl-containing analogue, 48, 49 among C20 ester analogues

T1 sequence (P28867 231-281 limits assumed): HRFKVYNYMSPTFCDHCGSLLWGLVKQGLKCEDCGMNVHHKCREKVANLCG

Structure (SMILES): CCCCCCCC(=O)O[C@H]1/C(=C/C(=O)OC)C[C@H]2C[C@H](CO)OC(=O)C[C@H](O)C[C@@H]3CCCC(CC4CCO[C@H](/C=C/C(C)(C)[C@]1(O)O2)O4)O3 [Formula IIa (702.1)]
- GI50 ([1]; Homo sapiens): 21.4 µM
- Difference (GI50 desmethyl vs Bryo-1) [1]: 0.43
- Difference (GI50 desmethyl vs Bryo-1) [2]: 0.02
- GI50 ([2]; Homo sapiens): 6.61 µM
- GI50 ([3]; Homo sapiens): 9.55 µM
- Difference (GI50 desmethyl vs Bryo-1) [3]: 0.18
- GI50 ([4]; Homo sapiens): 5.5 µM
- Difference (GI50 desmethyl vs Bryo-1) [4]: −0.26
- Difference (GI50 desmethyl vs Bryo-1) [5]: 0.63
- GI50 ([5]; Homo sapiens): 21.4 µM
- activity in P388 assay compared with other analogues [6, 21]: significantly higher activity
- EC50 ([6]; Mus musculus, P388, 120 h, 5 days incubation, MTT, read-out: P388 Assay ED50): 0.017 µM
- Difference (GI50 desmethyl vs Bryo-1) [7]: −0.49
- GI50 ([7]; Homo sapiens): 2.04 µM
- GI50 ([8]; Homo sapiens, MDA-MB-435, Breast): 0.0219 µM
- more active than bryostatin-1 by ([8]; MDA-MB435 (breast)): more than 2 orders of magnitude
- Difference (GI50 desmethyl vs Bryo-1) ([8]; MDA-MB-435, Breast): −2.56
- GI50 ([9]; Homo sapiens): 50.1 µM
- Difference (GI50 desmethyl vs Bryo-1) [9]: 0.80
- GI50 ([10]; Homo sapiens): 17 µM
- Difference (GI50 desmethyl vs Bryo-1) [10]: 0.33
- GI50 ([11]; Homo sapiens): 4.57 µM
- Difference (GI50 desmethyl vs Bryo-1) [11]: −0.14
- Difference (GI50 desmethyl vs Bryo-1) [12]: −1.38
- GI50 ([12]; Homo sapiens): 0.417 µM
- Difference (GI50 desmethyl vs Bryo-1) [13]: 0.18
- GI50 ([13]; Homo sapiens, T47D): 9.55 µM
- Ki [14]: 0.0003 ± 7e-05 µM
- activity in PKCδ-C1B assay compared with other analogues [14, 21]: significantly higher activity
- GI50 ([15]; Homo sapiens): 1.51 µM
- Difference (GI50 desmethyl vs Bryo-1) [15]: −0.82
- GI50 ([16]; Homo sapiens): 6.31 µM
- Difference (GI50 desmethyl vs Bryo-1) [16]: −0.20
- GI50 [17]: 17.4 µM
- GI50 ([18]; Homo sapiens): < 0.01 µM
- Difference (GI50 desmethyl vs Bryo-1) [18]: −2.50
- more active than bryostatin-1 by [18]: more than 2 orders of magnitude
- Difference (GI50 desmethyl vs Bryo-1) [19]: −2.24
- more active than bryostatin-1 by [19]: more than 2 orders of magnitude
- GI50 ([19]; Homo sapiens): 0.0288 µM
- GI50 ([20]; Homo sapiens, read-out: Growth inhibition (GI50)): < 0.01 µM
- Difference (GI50 desmethyl vs Bryo-1) [20]: −2.40
- more active than bryostatin-1 by [20]: more than 2 orders of magnitude
